PMC7156458, “Synthetic biology based construction of biological activity-related library of fungal decalin-containing diterpenoid pyrones” (Nature Communications, 2020)

Biological target: Aβ42 (Homo sapiens, UniProt P05067)
Test: Th-T (thioflavin-T) assay of Aβ42 aggregation
Format: biochemical
Details: for Th-T fluorescence of Aβ42 (sheet Fig. 7a), mean of three wells: head suffix _50 (concentration 50); for Th-T assay plate reading, mean of three wells (Supplementary Fig. 47): source data, Ab alone and No Ab as controls; for Th-T fluorescence, mean of three wells: Supplementary Fig. 47 source data

Sequence of Aβ42 (P05067 672-713): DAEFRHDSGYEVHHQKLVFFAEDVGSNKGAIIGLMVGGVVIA

## C=C1CC[C@@H]2[C@](C)(CC[C@H]3O[C@H](C=C(C)C)C[C@@]23C)[C@@H]1Cc1c(OC)oc(CO)c(C)c1=O [Compound 20]
Reading M73
  Th-T fluorescence of Aβ42 (sheet Fig. 7a), mean of three wells: 2.113
Reading M74
  Th-T fluorescence of Aβ42 (sheet Fig. 7a), mean of three wells: 2.11
Reading M75
  Th-T fluorescence of Aβ42 (sheet Fig. 7a), mean of three wells: 2.1032
Reading M76
  Th-T fluorescence of Aβ42 (sheet Fig. 7a), mean of three wells: 2.123
Reading M77
  Th-T fluorescence of Aβ42 (sheet Fig. 7a), mean of three wells: 2.122
Reading M78
  Th-T fluorescence of Aβ42 (sheet Fig. 7a), mean of three wells: 2.117
Reading M79
  Th-T fluorescence of Aβ42 (sheet Fig. 7a), mean of three wells: 2.1153
Reading M80
  Th-T fluorescence of Aβ42 (sheet Fig. 7a), mean of three wells: 2.1
Reading M81
  Th-T fluorescence of Aβ42 (sheet Fig. 7a), mean of three wells: 2.1
Reading M82
  Th-T fluorescence of Aβ42 (sheet Fig. 7a), mean of three wells: 2.102
Reading M83
  Th-T fluorescence of Aβ42 (sheet Fig. 7a), mean of three wells: 2.096
Reading M84
  Th-T fluorescence of Aβ42 (sheet Fig. 7a), mean of three wells: 2.077
Measurement M1
  Th-T assay plate reading, mean of three wells (Supplementary Fig. 47): 0.2292
Measurement M2
  Th-T assay plate reading, mean of three wells (Supplementary Fig. 47): 0.2238
Measurement M3
  Th-T assay plate reading, mean of three wells (Supplementary Fig. 47): 0.2417
Measurement M4
  Th-T assay plate reading, mean of three wells (Supplementary Fig. 47): 0.2884
Measurement M5
  Th-T assay plate reading, mean of three wells (Supplementary Fig. 47): 0.3754
Measurement M6
  Th-T assay plate reading, mean of three wells (Supplementary Fig. 47): 0.3834
Measurement M7
  Th-T assay plate reading, mean of three wells (Supplementary Fig. 47): 0.4602
Measurement M8
  Th-T assay plate reading, mean of three wells (Supplementary Fig. 47): 0.4852
Measurement M9
  Th-T assay plate reading, mean of three wells (Supplementary Fig. 47): 0.5189
Measurement M10
  Th-T assay plate reading, mean of three wells (Supplementary Fig. 47): 0.5747
Measurement M11
  Th-T assay plate reading, mean of three wells (Supplementary Fig. 47): 0.6382
Measurement M12
  Th-T assay plate reading, mean of three wells (Supplementary Fig. 47): 0.9536
Measurement M13
  Th-T assay plate reading, mean of three wells (Supplementary Fig. 47): 1.7846
Measurement M14
  Th-T assay plate reading, mean of three wells (Supplementary Fig. 47): 2.679
Measurement M15
  Th-T assay plate reading, mean of three wells (Supplementary Fig. 47): 3.243
Measurement M16
  Th-T assay plate reading, mean of three wells (Supplementary Fig. 47): 3.548
Reading M107, compound at 10 (head suffix _10)
  Th-T fluorescence, mean of three wells (Fig. 7a): 3.243
Reading M107, compound at 20 (head suffix _20)
  Th-T fluorescence, mean of three wells (Fig. 7a): 3.218
Reading M107, compound at 50 (head suffix _50)
  Th-T fluorescence, mean of three wells (Fig. 7a): 2.093
Reading M108, compound at 10 (head suffix _10)
  Th-T fluorescence, mean of three wells (Fig. 7a): 3.266
Reading M108, compound at 20 (head suffix _20)
  Th-T fluorescence, mean of three wells (Fig. 7a): 3.22
Reading M108, compound at 50 (head suffix _50)
  Th-T fluorescence, mean of three wells (Fig. 7a): 2.097
Reading M109, compound at 10 (head suffix _10)
  Th-T fluorescence, mean of three wells (Fig. 7a): 3.248
Reading M109, compound at 20 (head suffix _20)
  Th-T fluorescence, mean of three wells (Fig. 7a): 3.217
Reading M109, compound at 50 (head suffix _50)
  Th-T fluorescence, mean of three wells (Fig. 7a): 2.11
Reading M110, compound at 10 (head suffix _10)
  Th-T fluorescence, mean of three wells (Fig. 7a): 3.266
Reading M110, compound at 20 (head suffix _20)
  Th-T fluorescence, mean of three wells (Fig. 7a): 3.23
Reading M110, compound at 50 (head suffix _50)
  Th-T fluorescence, mean of three wells (Fig. 7a): 2.1005
Reading M111, compound at 10 (head suffix _10)
  Th-T fluorescence, mean of three wells (Fig. 7a): 3.255
Reading M111, compound at 20 (head suffix _20)
  Th-T fluorescence, mean of three wells (Fig. 7a): 3.22
Reading M111, compound at 50 (head suffix _50)
  Th-T fluorescence, mean of three wells (Fig. 7a): 2.105
Reading M112, compound at 10 (head suffix _10)
  Th-T fluorescence, mean of three wells (Fig. 7a): 3.256
Reading M112, compound at 20 (head suffix _20)
  Th-T fluorescence, mean of three wells (Fig. 7a): 3.191
Reading M112, compound at 50 (head suffix _50)
  Th-T fluorescence, mean of three wells (Fig. 7a): 2.0956
Reading M113, compound at 10 (head suffix _10)
  Th-T fluorescence, mean of three wells (Fig. 7a): 3.234
Reading M113, compound at 20 (head suffix _20)
  Th-T fluorescence, mean of three wells (Fig. 7a): 3.181
Reading M113, compound at 50 (head suffix _50)
  Th-T fluorescence, mean of three wells (Fig. 7a): 2.0902
Reading M114, compound at 10 (head suffix _10)
  Th-T fluorescence, mean of three wells (Fig. 7a): 3.244
Reading M114, compound at 20 (head suffix _20)
  Th-T fluorescence, mean of three wells (Fig. 7a): 3.188
Reading M114, compound at 50 (head suffix _50)
  Th-T fluorescence, mean of three wells (Fig. 7a): 2.0998
Reading M115, compound at 10 (head suffix _10)
  Th-T fluorescence, mean of three wells (Fig. 7a): 3.222
Reading M115, compound at 20 (head suffix _20)
  Th-T fluorescence, mean of three wells (Fig. 7a): 3.199
Reading M115, compound at 50 (head suffix _50)
  Th-T fluorescence, mean of three wells (Fig. 7a): 2.1006
Reading M116, compound at 10 (head suffix _10)
  Th-T fluorescence, mean of three wells (Fig. 7a): 3.244
Reading M116, compound at 20 (head suffix _20)
  Th-T fluorescence, mean of three wells (Fig. 7a): 3.193
Reading M116, compound at 50 (head suffix _50)
  Th-T fluorescence, mean of three wells (Fig. 7a): 2.109
Reading M117, compound at 10 (head suffix _10)
  Th-T fluorescence, mean of three wells (Fig. 7a): 3.211
Reading M117, compound at 20 (head suffix _20)
  Th-T fluorescence, mean of three wells (Fig. 7a): 3.166
Reading M117, compound at 50 (head suffix _50)
  Th-T fluorescence, mean of three wells (Fig. 7a): 2.104
Reading M118, compound at 10 (head suffix _10)
  Th-T fluorescence, mean of three wells (Fig. 7a): 3.228
Reading M118, compound at 20 (head suffix _20)
  Th-T fluorescence, mean of three wells (Fig. 7a): 3.17
Reading M118, compound at 50 (head suffix _50)
  Th-T fluorescence, mean of three wells (Fig. 7a): 2.102
Reading M119, compound at 10 (head suffix _10)
  Th-T fluorescence, mean of three wells (Fig. 7a): 3.2146
Reading M119, compound at 20 (head suffix _20)
  Th-T fluorescence, mean of three wells (Fig. 7a): 3.1938
Reading M119, compound at 50 (head suffix _50)
  Th-T fluorescence, mean of three wells (Fig. 7a): 2.1065
Reading M120, compound at 10 (head suffix _10)
  Th-T fluorescence, mean of three wells (Fig. 7a): 3.221
Reading M120, compound at 20 (head suffix _20)
  Th-T fluorescence, mean of three wells (Fig. 7a): 3.171
Reading M120, compound at 50 (head suffix _50)
  Th-T fluorescence, mean of three wells (Fig. 7a): 2.103
Reading M121, compound at 10 (head suffix _10)
  Th-T fluorescence, mean of three wells (Fig. 7a): 3.196
Reading M121, compound at 20 (head suffix _20)
  Th-T fluorescence, mean of three wells (Fig. 7a): 3.1528
Reading M121, compound at 50 (head suffix _50)
  Th-T fluorescence, mean of three wells (Fig. 7a): 2.099
Reading M122, compound at 10 (head suffix _10)
  Th-T fluorescence, mean of three wells (Fig. 7a): 3.2052
Reading M122, compound at 20 (head suffix _20)
  Th-T fluorescence, mean of three wells (Fig. 7a): 3.15
Reading M122, compound at 50 (head suffix _50)
  Th-T fluorescence, mean of three wells (Fig. 7a): 2.114
Reading M123, compound at 10 (head suffix _10)
  Th-T fluorescence, mean of three wells (Fig. 7a): 3.204
Reading M123, compound at 20 (head suffix _20)
  Th-T fluorescence, mean of three wells (Fig. 7a): 3.156
Reading M123, compound at 50 (head suffix _50)
  Th-T fluorescence, mean of three wells (Fig. 7a): 2.111
Reading M124, compound at 10 (head suffix _10)
  Th-T fluorescence, mean of three wells (Fig. 7a): 3.218
Reading M124, compound at 20 (head suffix _20)
  Th-T fluorescence, mean of three wells (Fig. 7a): 3.1455
Reading M124, compound at 50 (head suffix _50)
  Th-T fluorescence, mean of three wells (Fig. 7a): 2.111
Reading M125, compound at 10 (head suffix _10)
  Th-T fluorescence, mean of three wells (Fig. 7a): 3.1992
Reading M125, compound at 20 (head suffix _20)
  Th-T fluorescence, mean of three wells (Fig. 7a): 3.1234
Reading M125, compound at 50 (head suffix _50)
  Th-T fluorescence, mean of three wells (Fig. 7a): 2.096
Reading M126, compound at 10 (head suffix _10)
  Th-T fluorescence, mean of three wells (Fig. 7a): 3.205
Reading M126, compound at 20 (head suffix _20)
  Th-T fluorescence, mean of three wells (Fig. 7a): 3.128
Reading M126, compound at 50 (head suffix _50)
  Th-T fluorescence, mean of three wells (Fig. 7a): 2.099
Reading M127, compound at 10 (head suffix _10)
  Th-T fluorescence, mean of three wells (Fig. 7a): 3.195
Reading M127, compound at 20 (head suffix _20)
  Th-T fluorescence, mean of three wells (Fig. 7a): 3.121
Reading M127, compound at 50 (head suffix _50)
  Th-T fluorescence, mean of three wells (Fig. 7a): 2.104
Reading M128, compound at 10 (head suffix _10)
  Th-T fluorescence, mean of three wells (Fig. 7a): 3.198
Reading M128, compound at 20 (head suffix _20)
  Th-T fluorescence, mean of three wells (Fig. 7a): 3.11
Reading M128, compound at 50 (head suffix _50)
  Th-T fluorescence, mean of three wells (Fig. 7a): 2.109
time-course reading M97
  Th-T fluorescence, mean of three wells: 4.216
time-course reading M98
  Th-T fluorescence, mean of three wells: 4.216
time-course reading M99
  Th-T fluorescence, mean of three wells: 4.236
time-course reading M100
  Th-T fluorescence, mean of three wells: 4.238
time-course reading M101
  Th-T fluorescence, mean of three wells: 4.225
time-course reading M102
  Th-T fluorescence, mean of three wells: 4.201
time-course reading M103
  Th-T fluorescence, mean of three wells: 4.222
time-course reading M104
  Th-T fluorescence, mean of three wells: 4.203
time-course reading M105
  Th-T fluorescence, mean of three wells: 4.225
time-course reading M106
  Th-T fluorescence, mean of three wells: 4.21
time-course reading M107
  Th-T fluorescence, mean of three wells: 4.216
time-course reading M108
  Th-T fluorescence, mean of three wells: 4.2224
time-course reading M109
  Th-T fluorescence, mean of three wells: 4.227
time-course reading M110
  Th-T fluorescence, mean of three wells: 4.248
time-course reading M111
  Th-T fluorescence, mean of three wells: 4.24
time-course reading M112
  Th-T fluorescence, mean of three wells: 4.225
time-course reading M113
  Th-T fluorescence, mean of three wells: 4.225
time-course reading M114
  Th-T fluorescence, mean of three wells: 4.212
time-course reading M115
  Th-T fluorescence, mean of three wells: 4.199
time-course reading M116
  Th-T fluorescence, mean of three wells: 4.199
